This is an account of results in ChEMBL document CHEMBL1141048, “5-Substituted 4-anilinoquinazolines as potent, selective and orally active inhibitors of erbB2 receptor tyrosine kinase” (Bioorg Med Chem Lett, 2005).

Series [1] addresses Epidermal growth factor receptor (Homo sapiens, UniProt P00533). As to the kind of experiment: Inhibitory concentration against EGFR kinase phosphorylation using synthetic peptide as a substrate.
Series [2] concerns the target T1, Receptor tyrosine-protein kinase erbB-2 (Homo sapiens, UniProt P04626). Put plainly: Inhibitory concentration against erbB2 kinase phosphorylation using synthetic peptide as a substrate.
The next series has as its system BT-474. As to the kind of experiment: Inhibitory concentration of compound against BT474C using standard MTT colorimetric endpoint. Conditions: Homo sapiens.
Series [3] in a line: Plasma concentration of compound after 2 hours of administration of 100 mg/kg through peroral route. The settings on record: mouse, po.
A short description of series [4]: Plasma concentration of compound after 4 hours of administration of 100 mg/kg through peroral route. Conditions: mouse, po.
Series [5] in a line: Plasma concentration of compound after 6 hours of administration of 100 mg/kg through peroral route. Conditions: mouse, po.
Series [6] in a line: Plasma concentration of compound after 16 hours of administration of 100 mg/kg through peroral route. Conditions: mouse, po.
A short description of series [7]: Plasma concentration of compound after 24 hours of administration of 100 mg/kg through peroral route. Conditions: mouse, po.
Series [8] is described as follows: Clearance of compound in Mice after administration of 5 mg/kg through peroral route. It is filed as ADME, organism-based. The arrangement: dose 5 mg/kg, route oral. Conditions: mouse, in vivo, po.
Series [9] can be described thus: Clearance of compound in Mice after administration of 2 mg/kg through intra venous route. The arrangement: dose 2 mg/kg. It is filed as ADME, organism-based. The settings on record: mouse, in vivo, iv.
Series [10] in a line: Steady state volume of Distribution of compound in Mice after administration of 5 mg/kg through peroral route. Also noted: dose 5 mg/kg, route oral. It is filed as ADME, organism-based. The settings on record: mouse, in vivo, po.
A short description of series [11]: Steady state volume of Distribution of compound in Mice after administration of 2 mg/kg through intra venous route. Also noted: dose 2 mg/kg. The series is classed as ADME, organism-based. Conditions: mouse, in vivo, iv, read-out: Vdss.
Series [12] can be described thus: Bioavailability of compound in Mice after administration of 5 mg/kg through peroral route. It is filed as ADME, organism-based. The settings on record: mouse, in vivo, po, read-out: Bioavailabiility.
Series [13] in a line: Bioavailability of compound in Mice after administration of 2 mg/kg through intra venous route. It is filed as ADME, organism-based. Conditions: mouse, in vivo, intravenous, read-out: Bioavailabiility.
A short description of series [14]: AUC in Mice after administration of 5 mg/kg through peroral route. The series is classed as ADME, organism-based. Also noted: dose 5 mg/kg, route oral. Conditions: mouse, plasma, po.
The subject of series [15] is KB. As to the kind of experiment: Inhibitory concentration of compound against KB Basal. The settings on record: Homo sapiens.
For series [16], the system named is KB. Put plainly: Inhibitory concentration of compound against KB using a sandwich ELISA. Conditions: Homo sapiens. A general note: An ELISA detects its analyte on a solid surface through an enzyme-linked reagent.
The target in series [17] is T1, Receptor tyrosine-protein kinase erbB-2. As to the kind of experiment: Inhibitory concentration against erbB2 autophosphorylation in MCF-7 breast carcinoma cell line. The series is classed as functional, cell-based, MCF7.
Series [18] is described as follows: AUC in Mice after administration of 5 mg/kg through oral route. Conditions: mouse, plasma.

The IC50 is the concentration needed to halve the response being measured. Low readings indicate higher potency, high ones lower potency. By CL/F is commonly meant the apparent clearance, not corrected for the fraction that reaches the circulation. As usually defined, the clearance is the volume of plasma or blood freed of the substance per unit of time. One may read the AUC as concentration integrated over time. Read a low AUC as low exposure.

Chain of Epidermal growth factor receptor (P00533 whole entry): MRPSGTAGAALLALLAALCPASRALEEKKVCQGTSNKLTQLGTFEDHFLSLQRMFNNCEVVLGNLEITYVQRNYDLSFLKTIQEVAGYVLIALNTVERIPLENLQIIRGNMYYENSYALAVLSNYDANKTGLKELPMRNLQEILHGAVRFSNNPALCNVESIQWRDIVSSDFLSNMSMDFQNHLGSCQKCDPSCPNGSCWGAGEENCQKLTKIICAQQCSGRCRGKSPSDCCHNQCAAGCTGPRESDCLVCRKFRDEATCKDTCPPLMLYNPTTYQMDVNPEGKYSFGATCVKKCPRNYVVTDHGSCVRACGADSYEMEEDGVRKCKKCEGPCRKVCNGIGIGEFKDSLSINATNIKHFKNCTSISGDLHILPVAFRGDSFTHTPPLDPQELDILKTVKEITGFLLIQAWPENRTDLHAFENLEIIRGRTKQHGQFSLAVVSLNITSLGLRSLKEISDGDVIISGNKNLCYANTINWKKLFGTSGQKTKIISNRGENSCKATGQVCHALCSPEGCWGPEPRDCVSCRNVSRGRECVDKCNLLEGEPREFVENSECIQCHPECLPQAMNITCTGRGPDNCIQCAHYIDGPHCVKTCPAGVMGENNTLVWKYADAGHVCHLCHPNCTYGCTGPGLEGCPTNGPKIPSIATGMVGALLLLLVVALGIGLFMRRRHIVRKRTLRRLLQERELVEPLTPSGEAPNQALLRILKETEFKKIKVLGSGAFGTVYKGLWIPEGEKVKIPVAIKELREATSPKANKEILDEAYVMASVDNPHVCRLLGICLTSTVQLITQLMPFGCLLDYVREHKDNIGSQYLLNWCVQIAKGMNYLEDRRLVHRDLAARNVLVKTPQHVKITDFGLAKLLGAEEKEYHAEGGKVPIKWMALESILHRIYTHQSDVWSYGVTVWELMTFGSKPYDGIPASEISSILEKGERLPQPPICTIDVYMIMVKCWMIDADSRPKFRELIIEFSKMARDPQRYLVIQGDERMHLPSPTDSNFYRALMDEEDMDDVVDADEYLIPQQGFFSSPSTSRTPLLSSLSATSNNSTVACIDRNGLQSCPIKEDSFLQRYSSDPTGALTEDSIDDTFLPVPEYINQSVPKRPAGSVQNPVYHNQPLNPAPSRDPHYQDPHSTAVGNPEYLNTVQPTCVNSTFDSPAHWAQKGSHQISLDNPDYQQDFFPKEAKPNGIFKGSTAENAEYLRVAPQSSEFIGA
T1 sequence (P04626 whole entry): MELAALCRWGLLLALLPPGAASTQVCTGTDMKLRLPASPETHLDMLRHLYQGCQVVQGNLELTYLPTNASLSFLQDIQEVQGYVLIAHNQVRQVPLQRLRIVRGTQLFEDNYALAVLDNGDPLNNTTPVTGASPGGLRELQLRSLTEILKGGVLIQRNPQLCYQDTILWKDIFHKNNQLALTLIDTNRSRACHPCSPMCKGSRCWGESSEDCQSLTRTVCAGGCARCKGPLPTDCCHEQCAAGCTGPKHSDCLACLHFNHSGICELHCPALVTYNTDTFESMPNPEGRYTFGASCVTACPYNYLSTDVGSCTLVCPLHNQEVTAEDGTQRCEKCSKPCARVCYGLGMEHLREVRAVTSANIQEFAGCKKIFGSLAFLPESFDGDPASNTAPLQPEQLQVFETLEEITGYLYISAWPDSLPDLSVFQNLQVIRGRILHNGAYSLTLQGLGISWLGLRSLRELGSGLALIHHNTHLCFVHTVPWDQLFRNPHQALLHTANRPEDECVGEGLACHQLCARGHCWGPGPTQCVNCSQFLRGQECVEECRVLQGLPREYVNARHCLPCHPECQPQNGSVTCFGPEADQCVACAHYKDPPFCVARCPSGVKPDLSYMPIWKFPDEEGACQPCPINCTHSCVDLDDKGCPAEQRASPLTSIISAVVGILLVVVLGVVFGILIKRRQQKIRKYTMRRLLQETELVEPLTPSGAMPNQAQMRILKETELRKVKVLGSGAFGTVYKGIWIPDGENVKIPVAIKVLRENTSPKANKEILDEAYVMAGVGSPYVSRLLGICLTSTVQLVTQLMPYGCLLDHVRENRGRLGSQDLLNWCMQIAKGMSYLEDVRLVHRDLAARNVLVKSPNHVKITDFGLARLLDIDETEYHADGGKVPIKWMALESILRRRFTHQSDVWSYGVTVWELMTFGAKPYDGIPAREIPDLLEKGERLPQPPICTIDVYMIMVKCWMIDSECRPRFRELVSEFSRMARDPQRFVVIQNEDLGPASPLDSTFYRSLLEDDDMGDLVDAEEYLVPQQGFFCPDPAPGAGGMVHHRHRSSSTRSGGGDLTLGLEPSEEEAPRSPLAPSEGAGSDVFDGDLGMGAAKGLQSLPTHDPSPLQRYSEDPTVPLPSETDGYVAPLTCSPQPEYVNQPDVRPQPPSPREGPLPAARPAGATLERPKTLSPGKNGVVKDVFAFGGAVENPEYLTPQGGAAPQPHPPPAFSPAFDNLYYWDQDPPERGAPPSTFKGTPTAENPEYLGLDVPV

In the case of `COc1cc2ncnc(Nc3ccc(OCc4ccccn4)c(C)c3)c2cc1OC`, the 50% inhibitory concentration (IC50) in series [1] was determined as 59 nM; in series [2], 56 nM.
On to `CN1CCC(Oc2cccc3ncnc(Nc4ccc(OCc5ccccn5)c(Cl)c4)c23)CC1`, for which the IC50 in the series with BT-474 is 41 nM; in series [1] it was 140 nM; in series [2], under 2 nM; with KB [15], 11900 nM; with KB [16], 2600 nM; in series [17], 61 nM. The same compound registered a concentration at 2 h in series [3] of 9.2 µM. In addition, the concentration at 4 h in series [4] was 7.2 µM. This compound also came in with a concentration at 6 h in series [5] of 6.9 µM. This compound returned a concentration at 16 h in series [6] of 2.2 µM. Moreover, in [7], the concentration at 24 h turned out to be 1.1 µM. The CL/F in series [8] amounted to 15 mL/min/kg. Further, the clearance in [9] came to 15 mL/min/kg. In series [10], the Vdss was 2.6 L/kg. The Vd in [11] stood at 2.6 L/kg. The bioavailability in series [12] and in series [13] was 50% in each case. Also, the AUC in [14] and in series [18] was 5.5 µM·h each time.
On to `COc1ccc(Nc2ncnc3cccc(OC4CCN(C)CC4)c23)cc1Cl`, for which the IC50 in [1] came out at 1800 nM; in series [2], 1100 nM.
For `Clc1cc(Nc2ncnc3cccc(OC4CCOCC4)c23)ccc1OCc1ccccn1` the same measures were 2400 nM and 24 nM.
Consider `CN1CCC(Oc2cccc3ncnc(Nc4ccc(OCc5cnccn5)c(Cl)c4)c23)CC1`, for which the half-maximal inhibitory concentration (IC50) in series [1] is 690 nM; in series [2] it was under 2 nM.
Take `CN1CCC(Oc2cccc3ncnc(Nc4ccc(OCc5cccc(F)c5)c(Cl)c4)c23)CC1`: the IC50 is 2.7 nM in the series on BT-474; 5 nM in [1]; under 2 nM in series [2]; 1700 nM with KB [15]; 460 nM in the series on KB [16]; 56 nM in series [17].
Turning to `COc1cccc2ncnc(Nc3ccc(OCc4ccccn4)c(Cl)c3)c12`, the IC50 in [1] was 440 nM; in series [2], 24 nM.
On the same counts, the results for `CN1CCC(Oc2cccc3ncnc(Nc4ccc(OCc5ccccn5)cc4)c23)CC1` are 2100 nM and 70 nM.
On the same counts, the results for `CN1CCC(Oc2cccc3ncnc(Nc4ccc(OCc5cscn5)c(Cl)c4)c23)CC1` are 698 nM and under 2 nM.
